#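 Interpolation was linear, between the two tested concentrations surrounding the appropriate level; five concentrations were tested over 48 hours in 96-well plates. Abbreviation: GI50, concentration required for 50% inhibition of growth.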 The source made the active and inactive calls. Rule as the data show it: active = GI50 up to about 1.1 µM and inactive = higher.
# Columns and labels:
# Assay in all cases: NCI-60 cell line screen, 48 h
# [1] = system: SK-OV-3
# [2] = system: HCT-116
# [3] = system: SW-620
# [4] = system: RXF 393
# [5] = system: OVCAR-4
# [6] = system: CAKI-1
# [7] = system: HOP-62
# [8] = system: NCI-H23
# [9] = system: K562
# [10] = system: ACHN
# [11] = system: U-251
# [12] = system: SK-MEL-28
# [13] = system: RPMI-8226
# [14] = system: COLO 205
# [15] = system: IGROV-1
# [16] = system: HCC 2998
# [17] = system: SK-MEL-5
# [18] = system: HOP-92
# [19] = system: T47D
# [20] = system: CCRF-CEM
# [21] = system: LOX IMVI
# [22] = system: NCI/ADR-RES
# [23] = system: SF-539
# [24] = system: EKVX
# [25] = system: SF-268
# [26] = system: Malme-3M
# [27] = system: MCF7
# [28] = system: UACC-257
# [29] = system: DU-145
# [30] = system: UO-31
# [31] = system: KM12
# [32] = system: HCT-15
# [33] = system: OVCAR-8
# [34] = system: NCI-H522
# [35] = system: MDA-N
# [36] = system: SR
# [37] = system: TK-10
# [38] = system: OVCAR-5
# [39] = system: NCI-H460
# [40] = system: HL-60
# [41] = system: MDA-MB-231
# [42] = system: OVCAR-3
# [43] = system: SF-295
# [44] = system: A498
# [45] = system: 786-0
# [46] = system: MDA-MB-435
# [47] = system: UACC-62
# [48] = system: Hs-578T
# [49] = system: A549
# [50] = system: M14
# [51] = system: HT-29
# [52] = system: SNB-19
# [53] = system: BT-549
# [54] = system: SNB-75
# [55] = system: SK-MEL-2
# [56] = system: SN12C
# [57] = system: PC-3
# [58] = system: MOLT-4
# [59] = system: NCI-H226
structure (smiles),measurement,setting,value
Cc1[nH]c2ccccc2c1/C=N/NC(=O)c1cccc(I)c1,GI50,[1],32.2 µM (inactive)
same,GI50,[2],22.9 µM (inactive)
same,GI50,[3],29 µM (inactive)
same,GI50,[4],17.5 µM (inactive)
same,GI50,[5],16.1 µM (inactive)
same,GI50,[6],18.2 µM (inactive)
same,GI50,[7],17.6 µM (inactive)
same,GI50,[8],19.1 µM (inactive)
same,GI50,[9],24.5 µM (inactive)
same,GI50,[10],26.8 µM (inactive)
same,GI50,[11],21.5 µM (inactive)
same,GI50,[12],22.7 µM (inactive)
same,GI50,[13],19.9 µM (inactive)
same,GI50,[14],13.5 µM (inactive)
same,GI50,[15],17.7 µM (inactive)
same,GI50,[16],18.6 µM (inactive)
same,GI50,[17],15.7 µM (inactive)
same,GI50,[18],14.4 µM (inactive)
same,GI50,[19],14.8 µM (inactive)
same,GI50,[20],26 µM (inactive)
same,GI50,[21],15.7 µM (inactive)
same,GI50,[22],20.3 µM (inactive)
same,GI50,[23],18.8 µM (inactive)
same,GI50,[24],12.2 µM (inactive)
same,GI50,[25],40.6 µM (inactive)
same,GI50,[26],24.2 µM (inactive)
same,GI50,[27],19.5 µM (inactive)
same,GI50,[28],23.7 µM (inactive)
same,GI50,[29],27.9 µM (inactive)
same,GI50,[30],20.7 µM (inactive)
same,GI50,[31],16.3 µM (inactive)
same,GI50,[32],23.7 µM
same,GI50,[33],26.5 µM (inactive)
same,GI50,[34],24.3 µM (inactive)
same,GI50,[35],22.1 µM (inactive)
same,GI50,[36],17.9 µM (inactive)
same,GI50,[37],26.7 µM (inactive)
same,GI50,[38],25.1 µM (inactive)
same,GI50,[39],17.1 µM (inactive)
same,GI50,[40],26.9 µM (inactive)
same,GI50,[41],16.7 µM (inactive)
same,GI50,[42],20.7 µM (inactive)
same,GI50,[43],18.7 µM (inactive)
same,GI50,[44],18.4 µM (inactive)
same,GI50,[45],20.7 µM (inactive)
same,GI50,[46],17.3 µM (inactive)
same,GI50,[47],17.8 µM (inactive)
same,GI50,[48],33.1 µM (inactive)
same,GI50,[49],29.2 µM (inactive)
same,GI50,[50],15 µM (inactive)
same,GI50,[51],15.7 µM (inactive)
same,GI50,[52],29 µM (inactive)
same,GI50,[53],21.9 µM (inactive)
same,GI50,[54],22.4 µM (inactive)
same,GI50,[55],19.2 µM (inactive)
same,GI50,[56],30.2 µM (inactive)
same,GI50,[57],23 µM (inactive)
same,GI50,[58],23.3 µM (inactive)
COC(=O)C1Cc2c([nH]c3ccccc23)C(c2cccc(O)c2)N1 (centres undefined),GI50,[1],56.4 µM (inactive)
same,GI50,[2],35.7 µM (inactive)
same,GI50,[3],24.3 µM (inactive)
same,GI50,[4],25.8 µM (inactive)
same,GI50,[5],41.2 µM (inactive)
same,GI50,[6],57 µM (inactive)
same,GI50,[7],75.9 µM (inactive)
same,GI50,[8],29.8 µM (inactive)
same,GI50,[9],33.1 µM (inactive)
same,GI50,[10],60 µM (inactive)
same,GI50,[11],35 µM (inactive)
same,GI50,[12],28.7 µM (inactive)
same,GI50,[13],28.4 µM (inactive)
same,GI50,[14],30.5 µM (inactive)
same,GI50,[15],37.8 µM (inactive)
same,GI50,[16],25.6 µM (inactive)
same,GI50,[17],40.9 µM (inactive)
same,GI50,[18],28.4 µM (inactive)
same,GI50,[19],41.5 µM (inactive)
same,GI50,[20],19 µM (inactive)
same,GI50,[21],50.7 µM (inactive)
same,GI50,[22],22.9 µM (inactive)
same,GI50,[59],40.7 µM (inactive)
same,GI50,[23],33.4 µM (inactive)
same,GI50,[24],40.3 µM (inactive)
same,GI50,[25],40.8 µM (inactive)
same,GI50,[27],27.3 µM (inactive)
same,GI50,[28],90.8 µM (inactive)
same,GI50,[29],23.4 µM (inactive)
same,GI50,[30],80 µM (inactive)
same,GI50,[31],32.1 µM (inactive)
same,GI50,[32],34 µM
same,GI50,[33],32.1 µM (inactive)
same,GI50,[34],33.6 µM (inactive)
same,GI50,[35],19.5 µM (inactive)
same,GI50,[36],28.2 µM (inactive)
same,GI50,[37],> 100 µM (inactive)
same,GI50,[38],28.8 µM (inactive)
same,GI50,[39],26.3 µM (inactive)
same,GI50,[40],22.2 µM (inactive)
same,GI50,[41],22.3 µM (inactive)
same,GI50,[42],42 µM (inactive)
same,GI50,[43],45.7 µM (inactive)
same,GI50,[44],42.9 µM (inactive)
same,GI50,[45],49.1 µM (inactive)
same,GI50,[46],18.2 µM (inactive)
same,GI50,[47],44.2 µM (inactive)
same,GI50,[48],37.4 µM (inactive)
same,GI50,[49],41 µM (inactive)
same,GI50,[50],21.3 µM (inactive)
same,GI50,[51],27.6 µM (inactive)
same,GI50,[52],42.5 µM (inactive)
same,GI50,[53],22.3 µM (inactive)
same,GI50,[54],23.6 µM (inactive)
same,GI50,[55],27 µM (inactive)
same,GI50,[56],40.9 µM (inactive)
same,GI50,[57],27.3 µM (inactive)
same,GI50,[58],31.6 µM (inactive)
C/C(CC(O)(C(F)(F)F)C(F)(F)F)=N\O,GI50,[1],> 10 µM (inactive)
same,GI50,[2],> 10 µM (inactive)
same,GI50,[3],> 10 µM (inactive)
same,GI50,[4],> 10 µM (inactive)
same,GI50,[5],> 10 µM (inactive)
same,GI50,[6],> 10 µM (inactive)
same,GI50,[7],> 10 µM (inactive)
same,GI50,[8],> 10 µM (inactive)
same,GI50,[9],> 10 µM (inactive)
same,GI50,[10],> 10 µM (inactive)
same,GI50,[11],> 10 µM (inactive)
same,GI50,[12],> 10 µM (inactive)
same,GI50,[13],> 10 µM (inactive)
same,GI50,[14],> 10 µM (inactive)
same,GI50,[15],> 10 µM (inactive)
same,GI50,[16],> 10 µM (inactive)
same,GI50,[17],> 10 µM (inactive)
same,GI50,[18],> 10 µM (inactive)
same,GI50,[19],> 10 µM (inactive)
same,GI50,[20],> 10 µM (inactive)
same,GI50,[21],> 10 µM (inactive)
same,GI50,[22],> 10 µM (inactive)
same,GI50,[59],> 10 µM (inactive)
same,GI50,[23],> 10 µM (inactive)
same,GI50,[24],> 10 µM (inactive)
same,GI50,[25],> 10 µM (inactive)
same,GI50,[26],> 10 µM (inactive)
same,GI50,[27],> 10 µM (inactive)
same,GI50,[28],> 10 µM (inactive)
same,GI50,[29],> 10 µM (inactive)
same,GI50,[31],> 10 µM (inactive)
same,GI50,[32],> 10 µM
same,GI50,[33],> 10 µM (inactive)
same,GI50,[34],> 10 µM (inactive)
same,GI50,[35],> 10 µM (inactive)
same,GI50,[36],> 10 µM (inactive)
same,GI50,[37],> 10 µM (inactive)
same,GI50,[38],> 10 µM (inactive)
same,GI50,[39],> 10 µM (inactive)
same,GI50,[40],> 10 µM (inactive)
same,GI50,[41],> 10 µM (inactive)
same,GI50,[42],> 10 µM (inactive)
same,GI50,[43],> 10 µM (inactive)
same,GI50,[44],> 10 µM (inactive)
same,GI50,[45],> 10 µM (inactive)
same,GI50,[46],> 10 µM (inactive)
same,GI50,[47],> 10 µM (inactive)
same,GI50,[48],> 10 µM (inactive)
same,GI50,[49],> 10 µM (inactive)
same,GI50,[50],> 10 µM (inactive)
same,GI50,[51],> 10 µM (inactive)
same,GI50,[52],> 10 µM (inactive)
same,GI50,[53],> 10 µM (inactive)
same,GI50,[54],> 10 µM (inactive)
same,GI50,[55],> 10 µM (inactive)
same,GI50,[56],> 10 µM (inactive)
same,GI50,[57],> 10 µM (inactive)
same,GI50,[58],> 10 µM (inactive)
